The text below walks through data of US7772227B2, “Tricyclic 1-[(indol-3-yl)carbonyl]piperazine derivatives as cannabinoid CB1 receptor agonists” (N.V. Organon, priority 2003, dated 2010).

One test addresses T1, human CB1 receptor (Homo sapiens, UniProt P21554).
T1 construct: expressed in transfected cells; host or cells: Chinese Hamster Ovary (CHO) cells
The test can be described thus: Efficacy and potency at the human CB1 receptor expressed in CHO cells (luciferase reporter gene). The class given is cell-based. The conditions noted are these: 5 h incubation at 37° C. How it is done:
Methods to determine receptor binding as well as in vitro biological activity of cannabinoid receptor modulators are well known in the art. In general, expressed receptor is contacted with the compound to be tested and binding or stimulation or inhibition of a functional response is measured.
Chinese Hamster Ovary (CHO) cells expressing the human CB1 receptor and a luciferase reporter gene were suspended in phenol red/serum free DMEM/F-12 nut mix containing penicillin/streptomycin (50 U/50 μg/ml) and fungizone (1 μg/ml) and seeded into 96 well plates at a density of 3×10^4 cells per well (100 μl final volume). Cells were incubated overnight (approx. 18 h at 37° C., 5% CO2/95% air) prior to assay.
The test compound (10 mM solution in dimethylsulfoxide) was diluted in F12 Nut Mix to give a range of stock solutions from 0.11 mM to 0.11 nM. The stock solutions (10 μl) were added directly to the relevant wells. The plates were incubated at 37° C. for 5 h to allow agonist-induced expression of the luciferase enzyme. Under subdued light, LucLite substrate (Packard; reconstituted as per manufacturer's instructions; 100 μl) was added to each well. Plates were covered with Top Seal and then incubated at room temperature for 5 minutes before counting on the Packard TopCount (single photon counting, 0.01 minute count time, 5 minute count delay).
A “best-fit” curve was fitted by a minimum sum of squares method to the plot of counts per second (CPS) against compound concentration (M) to obtain an EC50 value.
(In general: A reporter such as luciferase makes a cellular process visible.)

The test system of another test is mice. The test is described as follows: Tail flick latency in mice. The class given is in vivo. Conditions: Mus musculus, iv, administered intravenously, ED50 calculated at Tmax, read-out: ED50 (increase of tail flick latency). The protocol:
Mice were trained to sit still in a tail flick apparatus (Ugo Basile, Italy) whilst tail flick latency was measured. The tail was exposed to a focused beam of radiant heat at a point approximately 2.5 cm from the tip. Tail flick latency was defined as the interval between the appliance of the thermal stimulus and withdrawal of the tail. A 12 second cut-off was employed to prevent tissue damage. Four groups of eight mice were treated with vehicle or one of three doses of the test compound, administered intravenously (vehicle: saline 9 g/l; injection volume 10 ml/kg). Tail flick latency was measured before administration of the test compound and at regular intervals (typically 20, 40 and 60 minutes) after compound administration. The ED50 was calculated at Tmax.

Setting [1] is: CHO cells expressing human CB1 receptor and luciferase reporter gene.
Setting [2] is: CHO cells expressing human CB1 receptor and luciferase reporter gene, read-out: pEC50 (converted).

Where a name gives a salt, the structure may show the parent alone. Read-outs that look alike come from different tables or passages of the source.

T1 sequence (P21554 whole entry): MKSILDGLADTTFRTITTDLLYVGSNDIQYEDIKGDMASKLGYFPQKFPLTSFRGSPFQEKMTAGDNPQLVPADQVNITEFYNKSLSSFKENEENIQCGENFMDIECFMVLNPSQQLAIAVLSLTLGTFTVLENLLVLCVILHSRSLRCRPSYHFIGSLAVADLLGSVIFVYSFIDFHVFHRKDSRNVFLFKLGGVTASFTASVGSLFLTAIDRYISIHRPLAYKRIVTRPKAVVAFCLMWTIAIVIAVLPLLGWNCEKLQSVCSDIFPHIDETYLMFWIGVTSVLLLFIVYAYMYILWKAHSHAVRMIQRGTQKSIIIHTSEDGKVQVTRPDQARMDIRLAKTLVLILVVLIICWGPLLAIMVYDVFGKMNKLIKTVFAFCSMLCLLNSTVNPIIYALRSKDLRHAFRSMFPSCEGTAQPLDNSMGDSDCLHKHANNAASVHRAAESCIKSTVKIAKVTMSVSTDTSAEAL

A word on the pEC50: it is −log10 of the EC50, conventionally taken in molar units. In turn, `COCCN1[C@H](C)CN(C(=O)c2cn3c4c(cccc24)OC[C@H]3C2CCCCC2)C[C@@H]1C.Cl` [Example 10, (R)-3-Cyclohexyl-2,3-dihydro-6-[(cis)-3,5-dimethyl-4-(2-methoxyethyl)piperazin-1-yl-carbonyl]pyrrolo[1,2,3-de]-1,4-benzoxazine hydrochloride salt] yielded a negative logarithm of the EC50 (pEC50) on human CB1 receptor (setting [1]) of 8.3. As usually defined, the ED50 is the midpoint of the dose-response relation. For `CCN1CCN(C(=O)c2cn3c4c(cccc24)CCC3C2CCCCC2)CC1` (single isomer, unassigned; (-)) [Example 15, (−)-(4-Cyclohexyl-5,6-dihydro-1-(4-ethylpiperazin-1-ylcarbonyl)-4H-pyrrolo[3,2,1-ij]quinoline hydrochloride salt], on human CB1 receptor (setting [2]), the EC50 is 31.6 nM. Besides, the median effective dose (ED50) with mice is less than 5 µmol/kg. On human CB1 receptor (setting [1]), `CN1CCN(C(=O)c2cn3c4c(cccc24)OC[C@H]3C2CCCCC2)CC1.Cl` [Example 5C, (R)-3-Cyclohexyl-2,3-dihydro-6-[4-methylpirerazin-1-ylcarbonyl]pyrrolo[1,2,3-de]-1,4-benzoxazine hydrochloride salt] showed a pEC50 of 7.0.

Compound `CCN1[C@H](C)CN(C(=O)c2cn3c4c(cccc24)OC[C@H]3C2CCCCC2)C[C@@H]1C.Cl` [Example 8, (R)-3-Cyclohexyl-2,3-dihydro-6-[(cis)-3,5-dimethyl-4-ethylpiperazin-1-ylcarbonyl]-pyrrolo[1,2,3-de]-1,4-benzoxazine hydrochloride salt] displayed a pEC50 on human CB1 receptor (setting [1]) of 8.4. In turn, `CCN1CCN(C(=O)c2cn3c4c(cccc24)OC[C@H]3C2CCCCC2)CC1.Cl` [Example 1, (R)-3-Cyclohexyl-2,3-dihydro-6-(4-ethylpiperazin-1-ylcarbonyl)pyrrolo[1,2,3-de]-1,4-benzoxazine hydrochloride salt] had a negative logarithm of the EC50 (pEC50) on human CB1 receptor (setting [1]) of 7.5. With `CCN1CCN(C(=O)c2cn3c4c(cccc24)CCC3C2CCCCC2)CC1` (single isomer, unassigned; (+)) [Example 13, (+)-4-Cyclohexyl-5,6-dihydro-1-(4-ethylpiperazin-1-ylcarbonyl)-4H-pyrrolo[3,2,1-ij]-quinoline hydrochloride salt], the EC50 at human CB1 receptor (setting [2]) is 50.1 nM.

For the compound `CN1CCN(C(=O)c2cn3c4c(cccc24)CCC3C2CCCCC2)CC1` (single isomer, unassigned; (+)) [Example 14, (+)-(4-Cyclohexyl-5,6-dihydro-1-(4-methylpiperazin-1-ylcarbonyl)-4H-pyrrolo[3,2,1-ij]-quinoline hydrochloride salt], the EC50 at human CB1 receptor (setting [2]) is 79.4 nM. In addition, in the test on mice, the ED50 was less than 5 µmol/kg. Take `C[C@H]1CN(C(=O)c2cn3c4c(cccc24)OC[C@H]3C2CCCCC2)CCN1C.Cl` [Example 4, (R)-3-Cyclohexyl-2,3-dihydro-6-[(S)-3,4-dimethylpiperazin-1-ylcarbonyl]pyrrolo[1,2,3-de]-1,4-benzoxazine hydrochloride salt]: the negative logarithm of the EC50 (pEC50) on human CB1 receptor (setting [1]) is given as 7.8. Moreover, the median effective dose (ED50) in the test on mice is less than 5 µmol/kg. Regarding `CCN1CCN(C(=O)c2cn3c4c(cccc24)CCC3C2CCCC2)CC1` (single isomer, unassigned; (-)) [Example 12B, (−)-4-Cylclopentyl-5,6-dihydro-1-(4-ethylpiperazin-1-ylcarbonyl)-4H-pyrrolo[3,2,1-ij]quinoline hydrochloride salt], on human CB1 receptor (setting [2]), the EC50 is 39.8 nM. For `CN1CCN(C(=O)c2cn3c4c(cccc24)CCC3C2CCCCC2)CC1` (single isomer, unassigned; (-)) [Example 16, (−)-(4-Cyclohexyl-5,6-dihydro-1-(4-methylpiperazin-1-ylcarbonyl)-4H-pyrrolo[3,2,1-ij]-quinoline hydrochloride salt], at human CB1 receptor (setting [2]), the EC50 was 25.1 nM.

Consider `C[C@@H]1CN(C(=O)c2cn3c4c(cccc24)OC[C@H]3C2CCCCC2)C[C@H](C)N1CCO.Cl` [Example 9, (R)-3-Cyclohexyl-2,3-dihydro-6-[(cis)-3,5-dimethyl-4-(2-hydroxyethyl)piperazin-1-ylcarbonyl]pyrrolo[1,2,3-de]-1,4-benzoxazine hydrochloride salt], for which the pEC50 on human CB1 receptor (setting [1]) is listed as 8.2. As to `O=C(c1cn2c3c(cccc13)OC[C@H]2C1CCCCC1)N1CCN2CCCC[C@H]2C1` [Example 2, (R)-3-Cyclohexyl-2,3-dihydro-6-[(S)-octahydro-2H-pyrido[1,2-a]pyrazin-2-ylcarbonyl]-pyrrolo[1,2,3-de]-1,4-benzoxazine hydrochloride salt], the EC50 on human CB1 receptor (pEC50, CHO cells expressing human CB1 receptor and luciferase reporter gene) is 10 nM. Besides, the ED50 in the test with mice was less than 5 µmol/kg. In the case of `C[C@@H]1CN(C(=O)c2cn3c4c(cccc24)OC[C@H]3C2CCCCC2)C[C@H](C)N1C.Cl` [Example 7, (R)-3-Cyclohexyl-2,3-dihydro-6-[(cis)-3,4,5-trimethylpiperazin-1-ylcarbonyl]pyrrolo[1,2,3-de]-1,4-benzoxazine hydrochloride salt], the pEC50 on human CB1 receptor (setting [1]) is 8.2.
